Calls of active or inactive are those of the source. No cut-off for these calls is given here.
Target: Cyclin-dependent kinase inhibitor 1 (Homo sapiens) (UniProt P38936)
Test: Effect on p53-induced p21 transcription in response to DNA damage at 5 uM

Sequence of Cyclin-dependent kinase inhibitor 1 (Homo sapiens) (P38936 whole entry): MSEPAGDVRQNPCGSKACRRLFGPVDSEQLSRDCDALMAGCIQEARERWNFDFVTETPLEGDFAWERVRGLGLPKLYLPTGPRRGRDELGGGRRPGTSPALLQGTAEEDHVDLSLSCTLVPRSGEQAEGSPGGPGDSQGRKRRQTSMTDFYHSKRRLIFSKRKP

Row | SMILES | Activity
1 | CC(Cl)c1ccc(NCCCN)c([N+](=O)[O-])c1 (configuration not stated) | inactive
2 | Cc1ccc(NCCCN)c([N+](=O)[O-])c1 | inactive
